Laboratory results published in patent US8192962B2, “Processes for detecting toxic substances” (Daikin Industries, Ltd., priority 2001, dated 2012).

Test system: Stress protein genes
Assay: DNA chip mRNA expression in yeast, stress protein genes (Table 6)
Assay type: cell-based, Saccharomyces cerevisiae S288C
Method in brief: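 Chemical exposure: 2 h, log-phase S. cerevisiae S288C, YPD, 25° C., dose set to inhibit growth without death. Profiling: mRNA labeled by reverse transcription with Cy3- or Cy5-dUTP, hybridized to whole-genome array. Output: fluorescence ratio against untreated culture.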

[Cl][Hg][Cl] [(3), HgCl2]
The level of expressed mRNA in the presence of chemical substance/The level of expressed mRNA in the absence of chemical substance (yeast gene YAL005C): 7.0
The level of expressed mRNA in the presence of chemical substance/The level of expressed mRNA in the absence of chemical substance (yeast gene YAL015C): 1.7
The level of expressed mRNA in the presence of chemical substance/The level of expressed mRNA in the absence of chemical substance (yeast gene YBL075C): 3.1
The level of expressed mRNA in the presence of chemical substance/The level of expressed mRNA in the absence of chemical substance (yeast gene YBL093C): 0.4
The level of expressed mRNA in the presence of chemical substance/The level of expressed mRNA in the absence of chemical substance (yeast gene YBR044C): 0.7
The level of expressed mRNA in the presence of chemical substance/The level of expressed mRNA in the absence of chemical substance (yeast gene YBR054W): 5.4
The level of expressed mRNA in the presence of chemical substance/The level of expressed mRNA in the absence of chemical substance (yeast gene YBR067C): 2.8
The level of expressed mRNA in the presence of chemical substance/The level of expressed mRNA in the absence of chemical substance (yeast gene YBR072W): 18.4
The level of expressed mRNA in the presence of chemical substance/The level of expressed mRNA in the absence of chemical substance (yeast gene YBR126C): 5.6
The level of expressed mRNA in the presence of chemical substance/The level of expressed mRNA in the absence of chemical substance (yeast gene YBR169C): 3.9
The level of expressed mRNA in the presence of chemical substance/The level of expressed mRNA in the absence of chemical substance (yeast gene YCL035C): 1.5
The level of expressed mRNA in the presence of chemical substance/The level of expressed mRNA in the absence of chemical substance (yeast gene YCR021C): 4.2
The level of expressed mRNA in the presence of chemical substance/The level of expressed mRNA in the absence of chemical substance (yeast gene YCR060W): 0.9
The level of expressed mRNA in the presence of chemical substance/The level of expressed mRNA in the absence of chemical substance (yeast gene YCR083W): 1.5
The level of expressed mRNA in the presence of chemical substance/The level of expressed mRNA in the absence of chemical substance (yeast gene YDL022W): 6.9
The level of expressed mRNA in the presence of chemical substance/The level of expressed mRNA in the absence of chemical substance (yeast gene YDL025C): 3.5
The level of expressed mRNA in the presence of chemical substance/The level of expressed mRNA in the absence of chemical substance (yeast gene YDR033W): 4.6
The level of expressed mRNA in the presence of chemical substance/The level of expressed mRNA in the absence of chemical substance (yeast gene YDR077W): 3.5
The level of expressed mRNA in the presence of chemical substance/The level of expressed mRNA in the absence of chemical substance (yeast gene YDR098C): 1.0
The level of expressed mRNA in the presence of chemical substance/The level of expressed mRNA in the absence of chemical substance (yeast gene YDR155C): 3.2
The level of expressed mRNA in the presence of chemical substance/The level of expressed mRNA in the absence of chemical substance (yeast gene YDR258C): 2.8
The level of expressed mRNA in the presence of chemical substance/The level of expressed mRNA in the absence of chemical substance (yeast gene YDR293C): 1.2
The level of expressed mRNA in the presence of chemical substance/The level of expressed mRNA in the absence of chemical substance (yeast gene YDR436W): 1.1
The level of expressed mRNA in the presence of chemical substance/The level of expressed mRNA in the absence of chemical substance (yeast gene YDR513W): 2.3
The level of expressed mRNA in the presence of chemical substance/The level of expressed mRNA in the absence of chemical substance (yeast gene YDR519W): 1.7
The level of expressed mRNA in the presence of chemical substance/The level of expressed mRNA in the absence of chemical substance (yeast gene YEL030W): 1.9
The level of expressed mRNA in the presence of chemical substance/The level of expressed mRNA in the absence of chemical substance (yeast gene YEL039C): 1.3
The level of expressed mRNA in the presence of chemical substance/The level of expressed mRNA in the absence of chemical substance (yeast gene YER042W): 3.1
The level of expressed mRNA in the presence of chemical substance/The level of expressed mRNA in the absence of chemical substance (yeast gene YER057C): 3.0
The level of expressed mRNA in the presence of chemical substance/The level of expressed mRNA in the absence of chemical substance (yeast gene YER103W): 5.2
The level of expressed mRNA in the presence of chemical substance/The level of expressed mRNA in the absence of chemical substance (yeast gene YER125W): 1.5
The level of expressed mRNA in the presence of chemical substance/The level of expressed mRNA in the absence of chemical substance (yeast gene YFL014W): 5.7
The level of expressed mRNA in the presence of chemical substance/The level of expressed mRNA in the absence of chemical substance (yeast gene YFL016C): 1.6
The level of expressed mRNA in the presence of chemical substance/The level of expressed mRNA in the absence of chemical substance (yeast gene YFL020C): 1.9
The level of expressed mRNA in the presence of chemical substance/The level of expressed mRNA in the absence of chemical substance (yeast gene YFR052W): 1.3
The level of expressed mRNA in the presence of chemical substance/The level of expressed mRNA in the absence of chemical substance (yeast gene YGL073W): 0.9
The level of expressed mRNA in the presence of chemical substance/The level of expressed mRNA in the absence of chemical substance (yeast gene YGL115W): 1.2
The level of expressed mRNA in the presence of chemical substance/The level of expressed mRNA in the absence of chemical substance (yeast gene YGL181W): 1.2
The level of expressed mRNA in the presence of chemical substance/The level of expressed mRNA in the absence of chemical substance (yeast gene YGR088W): 7.7
The level of expressed mRNA in the presence of chemical substance/The level of expressed mRNA in the absence of chemical substance (yeast gene YHL028W): 1.4
The level of expressed mRNA in the presence of chemical substance/The level of expressed mRNA in the absence of chemical substance (yeast gene YHL046C): 2.1
The level of expressed mRNA in the presence of chemical substance/The level of expressed mRNA in the absence of chemical substance (yeast gene YHR030C): 0.6
The level of expressed mRNA in the presence of chemical substance/The level of expressed mRNA in the absence of chemical substance (yeast gene YHR057C): 0.7
The level of expressed mRNA in the presence of chemical substance/The level of expressed mRNA in the absence of chemical substance (yeast gene YHR104W): 15.7
The level of expressed mRNA in the presence of chemical substance/The level of expressed mRNA in the absence of chemical substance (yeast gene YIL011W): 3.9
The level of expressed mRNA in the presence of chemical substance/The level of expressed mRNA in the absence of chemical substance (yeast gene YIL033C): 3.3
The level of expressed mRNA in the presence of chemical substance/The level of expressed mRNA in the absence of chemical substance (yeast gene YIR037W): 2.0
The level of expressed mRNA in the presence of chemical substance/The level of expressed mRNA in the absence of chemical substance (yeast gene YIR038C): 4.6
The level of expressed mRNA in the presence of chemical substance/The level of expressed mRNA in the absence of chemical substance (yeast gene YJL128C): 0.4
The level of expressed mRNA in the presence of chemical substance/The level of expressed mRNA in the absence of chemical substance (yeast gene YJL158C): 2.8
The level of expressed mRNA in the presence of chemical substance/The level of expressed mRNA in the absence of chemical substance (yeast gene YJL159W): 2.8
The level of expressed mRNA in the presence of chemical substance/The level of expressed mRNA in the absence of chemical substance (yeast gene YJL165C): 1.3
The level of expressed mRNA in the presence of chemical substance/The level of expressed mRNA in the absence of chemical substance (yeast gene YJR045C): 3.9
The level of expressed mRNA in the presence of chemical substance/The level of expressed mRNA in the absence of chemical substance (yeast gene YJR090C): 0.6
The level of expressed mRNA in the presence of chemical substance/The level of expressed mRNA in the absence of chemical substance (yeast gene YKL161C): 0.9
The level of expressed mRNA in the presence of chemical substance/The level of expressed mRNA in the absence of chemical substance (yeast gene YKL163W): 3.4
The level of expressed mRNA in the presence of chemical substance/The level of expressed mRNA in the absence of chemical substance (yeast gene YKL164C): 2.5
The level of expressed mRNA in the presence of chemical substance/The level of expressed mRNA in the absence of chemical substance (yeast gene YKL210W): 2.7
The level of expressed mRNA in the presence of chemical substance/The level of expressed mRNA in the absence of chemical substance (yeast gene YKR053C): 1.0
The level of expressed mRNA in the presence of chemical substance/The level of expressed mRNA in the absence of chemical substance (yeast gene YLL024C): 5.3
The level of expressed mRNA in the presence of chemical substance/The level of expressed mRNA in the absence of chemical substance (yeast gene YLL026W): 7.7
The level of expressed mRNA in the presence of chemical substance/The level of expressed mRNA in the absence of chemical substance (yeast gene YLL039C): 1.7
The level of expressed mRNA in the presence of chemical substance/The level of expressed mRNA in the absence of chemical substance (yeast gene YLL060C): 2.3
The level of expressed mRNA in the presence of chemical substance/The level of expressed mRNA in the absence of chemical substance (yeast gene YLR006C): 0.9
The level of expressed mRNA in the presence of chemical substance/The level of expressed mRNA in the absence of chemical substance (yeast gene YLR109W): 6.0
The level of expressed mRNA in the presence of chemical substance/The level of expressed mRNA in the absence of chemical substance (yeast gene YLR259C): 3.1
The level of expressed mRNA in the presence of chemical substance/The level of expressed mRNA in the absence of chemical substance (yeast gene YML007W): 0.9
The level of expressed mRNA in the presence of chemical substance/The level of expressed mRNA in the absence of chemical substance (yeast gene YML070W): 2.5
The level of expressed mRNA in the presence of chemical substance/The level of expressed mRNA in the absence of chemical substance (yeast gene YMR021C): 0.9
The level of expressed mRNA in the presence of chemical substance/The level of expressed mRNA in the absence of chemical substance (yeast gene YMR173W): 3.0
The level of expressed mRNA in the presence of chemical substance/The level of expressed mRNA in the absence of chemical substance (yeast gene YMR186W): 2.0
The level of expressed mRNA in the presence of chemical substance/The level of expressed mRNA in the absence of chemical substance (yeast gene YNL064C): 1.8
The level of expressed mRNA in the presence of chemical substance/The level of expressed mRNA in the absence of chemical substance (yeast gene YNL160W): 10.6
The level of expressed mRNA in the presence of chemical substance/The level of expressed mRNA in the absence of chemical substance (yeast gene YNL241C): 4.3
The level of expressed mRNA in the presence of chemical substance/The level of expressed mRNA in the absence of chemical substance (yeast gene YNR076W): 2.5
The level of expressed mRNA in the presence of chemical substance/The level of expressed mRNA in the absence of chemical substance (yeast gene YOL064C): 1.1
The level of expressed mRNA in the presence of chemical substance/The level of expressed mRNA in the absence of chemical substance (yeast gene YOL161C): 2.4
The level of expressed mRNA in the presence of chemical substance/The level of expressed mRNA in the absence of chemical substance (yeast gene YOR008C): 1.4
The level of expressed mRNA in the presence of chemical substance/The level of expressed mRNA in the absence of chemical substance (yeast gene YOR009W): 3.2
The level of expressed mRNA in the presence of chemical substance/The level of expressed mRNA in the absence of chemical substance (yeast gene YOR010C): 3.2
The level of expressed mRNA in the presence of chemical substance/The level of expressed mRNA in the absence of chemical substance (yeast gene YOR027W): 4.4
The level of expressed mRNA in the presence of chemical substance/The level of expressed mRNA in the absence of chemical substance (yeast gene YOR208W): 1.2
The level of expressed mRNA in the presence of chemical substance/The level of expressed mRNA in the absence of chemical substance (yeast gene YPL059W): 2.6
The level of expressed mRNA in the presence of chemical substance/The level of expressed mRNA in the absence of chemical substance (yeast gene YPL106C): 2.4
The level of expressed mRNA in the presence of chemical substance/The level of expressed mRNA in the absence of chemical substance (yeast gene YPL140C): 0.9
The level of expressed mRNA in the presence of chemical substance/The level of expressed mRNA in the absence of chemical substance (yeast gene YPL194W): 0.4
The level of expressed mRNA in the presence of chemical substance/The level of expressed mRNA in the absence of chemical substance (yeast gene YPL223C): 1.2
The level of expressed mRNA in the presence of chemical substance/The level of expressed mRNA in the absence of chemical substance (yeast gene YPL240C): 2.4
The level of expressed mRNA in the presence of chemical substance/The level of expressed mRNA in the absence of chemical substance (yeast gene YPR005C): 1.5
The level of expressed mRNA in the presence of chemical substance/The level of expressed mRNA in the absence of chemical substance (yeast gene YPR026W): 5.0
